Data published in ChEMBL document CHEMBL5465560, “Selectivity Literature for EUbOPEN Chemogenomic Library” (2024).
One block for each molecule: values may come before it.

How the values were obtained:
[1] = target: Glutamate receptor 1 (Homo sapiens) (UniProt P42261); test: Selectivity interaction (Eurofins CEREP Diversity Profile (receptors and ion channels)) EUB0000279b GRIA1; conditions: at 10 µM
[2] = target: T1, Muscarinic acetylcholine receptor M1 (Homo sapiens) (UniProt P11229); test: Selectivity interaction (Panel of kinases, GPCRs, ion channels and transporters (enzymatic assay)) EUB0000266bCl CHRM1
T1 sequence (whole entry): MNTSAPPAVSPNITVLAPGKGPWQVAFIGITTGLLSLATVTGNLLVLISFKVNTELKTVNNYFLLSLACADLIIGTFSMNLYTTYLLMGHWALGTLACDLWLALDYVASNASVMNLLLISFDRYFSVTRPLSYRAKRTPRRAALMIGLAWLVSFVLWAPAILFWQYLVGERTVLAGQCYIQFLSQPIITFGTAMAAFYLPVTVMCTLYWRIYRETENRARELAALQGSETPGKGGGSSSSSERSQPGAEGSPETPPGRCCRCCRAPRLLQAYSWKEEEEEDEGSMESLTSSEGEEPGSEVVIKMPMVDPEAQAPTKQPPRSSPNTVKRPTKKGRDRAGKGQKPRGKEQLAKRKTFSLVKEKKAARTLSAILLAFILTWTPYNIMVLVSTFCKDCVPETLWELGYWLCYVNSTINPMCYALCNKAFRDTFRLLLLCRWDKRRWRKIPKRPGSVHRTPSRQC

[3] = target: T2, Serine/threonine-protein kinase 36 (Homo sapiens) (UniProt Q9NRP7); conditions: at 10 µM
T2 sequence (whole entry): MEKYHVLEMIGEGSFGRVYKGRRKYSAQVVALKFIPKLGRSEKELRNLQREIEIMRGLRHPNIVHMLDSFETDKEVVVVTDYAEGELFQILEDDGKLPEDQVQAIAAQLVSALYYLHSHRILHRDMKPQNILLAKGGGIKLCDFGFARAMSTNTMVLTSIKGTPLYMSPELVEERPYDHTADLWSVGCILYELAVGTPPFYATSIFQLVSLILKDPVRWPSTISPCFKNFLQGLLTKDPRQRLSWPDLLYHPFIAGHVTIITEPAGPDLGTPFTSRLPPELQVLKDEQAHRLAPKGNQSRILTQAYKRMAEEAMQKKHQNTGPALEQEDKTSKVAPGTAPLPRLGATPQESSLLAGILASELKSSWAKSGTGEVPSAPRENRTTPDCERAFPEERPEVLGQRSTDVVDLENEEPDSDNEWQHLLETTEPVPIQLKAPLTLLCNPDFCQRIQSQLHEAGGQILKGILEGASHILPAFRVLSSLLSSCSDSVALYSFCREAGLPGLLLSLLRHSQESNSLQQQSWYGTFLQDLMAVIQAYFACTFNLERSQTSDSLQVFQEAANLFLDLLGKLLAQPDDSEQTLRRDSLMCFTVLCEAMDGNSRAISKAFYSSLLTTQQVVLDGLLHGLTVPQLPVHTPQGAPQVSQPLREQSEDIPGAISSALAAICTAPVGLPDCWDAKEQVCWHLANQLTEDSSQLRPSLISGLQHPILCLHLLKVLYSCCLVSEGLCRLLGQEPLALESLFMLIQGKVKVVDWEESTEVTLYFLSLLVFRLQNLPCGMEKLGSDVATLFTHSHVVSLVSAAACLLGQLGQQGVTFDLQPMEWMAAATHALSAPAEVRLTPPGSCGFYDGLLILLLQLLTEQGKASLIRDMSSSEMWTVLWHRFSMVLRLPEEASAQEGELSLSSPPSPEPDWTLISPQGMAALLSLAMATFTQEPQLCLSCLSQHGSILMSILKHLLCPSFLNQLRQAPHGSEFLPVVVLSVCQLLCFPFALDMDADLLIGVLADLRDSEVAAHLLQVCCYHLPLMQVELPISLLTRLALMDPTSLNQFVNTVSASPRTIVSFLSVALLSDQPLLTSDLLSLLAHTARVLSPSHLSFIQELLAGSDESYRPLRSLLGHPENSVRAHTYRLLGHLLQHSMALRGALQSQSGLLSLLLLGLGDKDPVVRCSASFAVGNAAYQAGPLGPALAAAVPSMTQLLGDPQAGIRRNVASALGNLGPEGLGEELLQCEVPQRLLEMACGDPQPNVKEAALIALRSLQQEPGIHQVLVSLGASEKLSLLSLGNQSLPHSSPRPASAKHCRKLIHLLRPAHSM

[4] = target: Dual specificity tyrosine-phosphorylation-regulated kinase 1A (Homo sapiens, UniProt Q13627); test: Selectivity interaction (Kinase panel (Invitrogen)) EUB0000639a DYRK1A; conditions: at 200 nM
[5] = target: Serine/threonine-protein kinase WNK1 (Homo sapiens) (UniProt Q9H4A3); test: Selectivity interaction (ActivX KiNativ screen (kinase selectivity in THP-1 cell lysates)) EUB0000639a WNK1; assay type: subcellular; conditions: lysate, at 0.2 µM
[6] = test system: Epidermal growth factor receptor (Homo sapiens), P00533 [G719C]; test: (§1) Selectivity interaction (ProQinase) EUB0000171b EGFR
[7] = test system: Epidermal growth factor receptor (Homo sapiens), P00533 [G719S]; test: as §1
[8] = test system: Epidermal growth factor receptor (Homo sapiens), P00533 [L858R,T790M]; test: as §1
[9] = test system: Epidermal growth factor receptor (Homo sapiens), P00533 [L858R]; test: as §1
[10] = test system: Epidermal growth factor receptor (Homo sapiens), P00533 [L861Q]; test: as §1
[11] = test system: Epidermal growth factor receptor (Homo sapiens), P00533 [T790M]; test: as §1
[12] = test system: Epidermal growth factor receptor (Homo sapiens), P00533 [UNDEFINED MUTATION]; test: as §1
[13] = target: Epidermal growth factor receptor (Homo sapiens, UniProt P00533); test: as §1
[14] = target: Mitogen-activated protein kinase kinase kinase 11 (Homo sapiens) (UniProt Q16584); test: Selectivity interaction (KinomeScan (DiscoverX)) EUB0000045b MAP3K11
[15] = target: Platelet-derived growth factor receptor beta (Homo sapiens, UniProt P09619); conditions: at 10 µM

Epidermal growth factor receptor, sequence (P00533 whole entry): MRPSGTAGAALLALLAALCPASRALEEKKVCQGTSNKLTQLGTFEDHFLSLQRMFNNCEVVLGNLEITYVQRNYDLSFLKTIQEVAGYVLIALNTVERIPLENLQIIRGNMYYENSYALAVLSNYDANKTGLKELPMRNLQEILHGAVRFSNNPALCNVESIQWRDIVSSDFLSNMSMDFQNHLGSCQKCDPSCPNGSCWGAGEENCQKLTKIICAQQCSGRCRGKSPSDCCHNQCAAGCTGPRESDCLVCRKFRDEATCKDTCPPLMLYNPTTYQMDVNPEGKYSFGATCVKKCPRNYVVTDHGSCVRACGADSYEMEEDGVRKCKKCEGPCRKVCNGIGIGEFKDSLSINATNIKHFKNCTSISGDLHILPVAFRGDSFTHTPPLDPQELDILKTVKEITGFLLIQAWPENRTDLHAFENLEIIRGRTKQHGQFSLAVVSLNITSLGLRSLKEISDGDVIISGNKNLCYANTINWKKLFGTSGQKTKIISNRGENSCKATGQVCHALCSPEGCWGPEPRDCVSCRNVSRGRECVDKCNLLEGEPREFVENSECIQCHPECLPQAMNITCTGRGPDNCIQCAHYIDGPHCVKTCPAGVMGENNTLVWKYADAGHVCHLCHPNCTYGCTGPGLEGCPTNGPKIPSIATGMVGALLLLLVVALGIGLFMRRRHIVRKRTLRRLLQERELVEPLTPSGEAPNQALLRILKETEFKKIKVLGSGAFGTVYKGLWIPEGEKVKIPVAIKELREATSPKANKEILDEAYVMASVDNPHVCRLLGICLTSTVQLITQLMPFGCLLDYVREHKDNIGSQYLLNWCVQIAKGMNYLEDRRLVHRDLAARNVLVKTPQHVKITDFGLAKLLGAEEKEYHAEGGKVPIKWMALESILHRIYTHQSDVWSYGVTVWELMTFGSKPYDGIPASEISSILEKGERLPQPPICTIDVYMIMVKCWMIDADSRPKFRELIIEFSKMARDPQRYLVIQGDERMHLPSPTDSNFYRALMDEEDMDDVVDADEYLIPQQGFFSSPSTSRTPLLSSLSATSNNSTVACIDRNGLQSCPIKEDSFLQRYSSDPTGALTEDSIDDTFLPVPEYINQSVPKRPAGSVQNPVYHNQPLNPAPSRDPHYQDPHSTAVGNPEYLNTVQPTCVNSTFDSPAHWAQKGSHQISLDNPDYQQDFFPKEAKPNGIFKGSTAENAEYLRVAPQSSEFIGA
Epidermal growth factor receptor (Homo sapiens), P00533 [UNDEFINED MUTATION], sequence (P00533 whole entry, looked up, change not shown): as the sequence (P00533 whole entry) above
Epidermal growth factor receptor (Homo sapiens), P00533 [G719C], sequence (P00533 whole entry G719C): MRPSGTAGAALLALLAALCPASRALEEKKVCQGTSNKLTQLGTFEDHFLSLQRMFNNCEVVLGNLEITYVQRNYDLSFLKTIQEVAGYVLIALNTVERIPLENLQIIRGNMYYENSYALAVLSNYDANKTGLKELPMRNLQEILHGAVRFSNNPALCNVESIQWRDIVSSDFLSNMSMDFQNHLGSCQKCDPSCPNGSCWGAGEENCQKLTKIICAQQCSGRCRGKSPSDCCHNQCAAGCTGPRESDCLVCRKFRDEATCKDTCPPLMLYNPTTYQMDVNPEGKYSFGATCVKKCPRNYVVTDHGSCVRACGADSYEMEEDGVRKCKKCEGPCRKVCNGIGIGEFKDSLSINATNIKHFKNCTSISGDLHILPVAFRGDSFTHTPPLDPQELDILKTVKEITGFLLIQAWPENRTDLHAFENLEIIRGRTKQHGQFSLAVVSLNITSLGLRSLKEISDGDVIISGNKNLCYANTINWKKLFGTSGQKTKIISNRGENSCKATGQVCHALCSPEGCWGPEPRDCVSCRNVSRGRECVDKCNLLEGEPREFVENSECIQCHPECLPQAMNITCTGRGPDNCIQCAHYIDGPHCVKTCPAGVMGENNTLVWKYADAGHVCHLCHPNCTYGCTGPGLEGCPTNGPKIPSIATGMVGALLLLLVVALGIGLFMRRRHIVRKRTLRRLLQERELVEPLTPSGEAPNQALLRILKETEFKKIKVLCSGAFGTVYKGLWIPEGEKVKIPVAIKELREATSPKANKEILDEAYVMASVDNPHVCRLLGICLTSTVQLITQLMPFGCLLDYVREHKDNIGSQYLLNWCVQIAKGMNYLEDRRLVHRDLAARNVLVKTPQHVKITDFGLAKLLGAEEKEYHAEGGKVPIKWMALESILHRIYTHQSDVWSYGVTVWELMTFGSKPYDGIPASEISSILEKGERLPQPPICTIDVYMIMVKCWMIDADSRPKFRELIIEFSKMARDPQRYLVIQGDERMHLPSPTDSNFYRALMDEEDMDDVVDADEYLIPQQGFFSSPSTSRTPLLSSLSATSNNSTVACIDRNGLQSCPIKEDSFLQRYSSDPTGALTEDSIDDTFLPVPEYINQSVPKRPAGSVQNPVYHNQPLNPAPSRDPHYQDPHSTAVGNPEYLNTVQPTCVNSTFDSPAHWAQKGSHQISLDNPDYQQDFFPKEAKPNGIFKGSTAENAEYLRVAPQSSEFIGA
Mitogen-activated protein kinase kinase kinase 11 (Homo sapiens), sequence (Q16584 whole entry, looked up): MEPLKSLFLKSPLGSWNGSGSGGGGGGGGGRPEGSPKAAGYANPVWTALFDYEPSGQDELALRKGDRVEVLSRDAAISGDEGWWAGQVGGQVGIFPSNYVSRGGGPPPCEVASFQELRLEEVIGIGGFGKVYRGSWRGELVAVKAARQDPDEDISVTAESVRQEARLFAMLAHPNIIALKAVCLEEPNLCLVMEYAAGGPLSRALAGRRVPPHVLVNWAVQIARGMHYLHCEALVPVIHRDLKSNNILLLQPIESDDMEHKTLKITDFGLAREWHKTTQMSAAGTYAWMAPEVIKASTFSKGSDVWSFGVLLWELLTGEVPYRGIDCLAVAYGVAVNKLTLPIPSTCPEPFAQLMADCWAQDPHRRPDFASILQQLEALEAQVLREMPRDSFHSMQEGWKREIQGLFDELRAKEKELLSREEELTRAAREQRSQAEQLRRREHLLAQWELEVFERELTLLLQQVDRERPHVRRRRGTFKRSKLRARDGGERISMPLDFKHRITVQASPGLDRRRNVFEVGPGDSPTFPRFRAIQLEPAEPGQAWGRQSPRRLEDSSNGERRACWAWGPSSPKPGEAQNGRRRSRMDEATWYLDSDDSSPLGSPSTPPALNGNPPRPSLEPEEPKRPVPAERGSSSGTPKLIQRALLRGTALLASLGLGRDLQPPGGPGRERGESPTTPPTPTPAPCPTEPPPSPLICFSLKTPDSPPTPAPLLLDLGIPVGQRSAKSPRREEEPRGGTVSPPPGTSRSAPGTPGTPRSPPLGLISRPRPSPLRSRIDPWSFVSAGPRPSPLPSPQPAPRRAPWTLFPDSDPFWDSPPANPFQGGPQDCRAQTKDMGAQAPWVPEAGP

% of control [1]: 93%
Structure (SMILES): CC(=O)c1cc(-c2ccccc2OCC2CC2)c2ncccn12

pXC50 [2]: 4.8 M
Structure (SMILES): CCn1c(-c2nc3cc(C(=O)N4CCCC(N)C4)ccc3n2C)cc2ccccc21 (centres undefined)

% of control [3]: 100%
Structure (SMILES): CCN(CC)CCCCNc1ncc2cc(-c3cc(OC)cc(OC)c3)c(NC(=O)NC(C)(C)C)nc2n1

% of inhibition [4]: 17.9%
% of inhibition [5]: -12%
Structure (SMILES): CC[C@@H]1[C@H](F)C(=O)N[C@@H]1COc1nccc2cc(C(N)=O)c(OC)cc12 [ZIMLOVISERTIB]

% of control ([6]; at 1 µM): 96%
% of control ([6]; at 5 µM): 75%
% of control ([7]; at 1 µM): 88%
% of control ([7]; at 5 µM): 97%
% of control ([8]; at 1 µM): 96%
% of control ([8]; at 5 µM): 96%
% of control ([9]; at 1 µM): 95%
% of control ([9]; at 5 µM): 83%
% of control ([10]; at 1 µM): 104%
% of control ([10]; at 5 µM): 91%
% of control ([11]; at 1 µM): 91%
% of control ([11]; at 5 µM): 84%
% of control ([12]; at 1 µM): 115%
% of control ([12]; at 5 µM): 88%
% of control ([13]; at 1 µM): 108%
% of control ([13]; at 5 µM): 101%
Structure (SMILES): C=CC(=O)Nc1cccc(C(=O)Nc2ccc(Nc3cc(-c4[nH]c(SC)nc4C)ccn3)cc2)c1

Structure (SMILES): C=CC(=O)Nc1cc(-n2c(=O)ccc3cnc4ccc(-c5ccc(NS(C)(=O)=O)cc5)cc4c32)ccc1C
% of control ([14]; at 1 µM): 91%
% of control ([14]; at 10 µM): 87%

Structure (SMILES): Cc1cc([C@@H](C)Nc2ccccc2C(=O)O)c2nc(N3CCOCC3)cc(=O)n2c1 [AZD-6482]
% of control [15]: 100%
